Assay results: publication PMC8568970 (Nature Communications, 2021)
Entries after “also recorded” stand apart in the source; their conditions may differ. Ends that are not written are not given here. * marks the point of attachment. Octanoyl = CCCCCCCC(=O)*

How the values were obtained:
wild type GHSR [1] = experiment: GTP turnover assay for Gi catalyzed by GHSR in nanodiscs; format: biochemical, human
From the text: (§1) Human GHSR was expressed in E. coli inclusion bodies, folded in amphipol A8-35, and then inserted into lipid nanodiscs formed with MSP1E3D1 and POPC:POPG (3:2 molar ratio) containing or not 10% cholesterol, as described in Damian et al.[54]. After insertion into nanodiscs, active receptor fractions were purified using affinity chromatography with the biotinylated version of the JMV2959 antagonist immobilized on a streptavidin column. GHSR containing disks were separated from aggregates and possible trace amounts of the ligand through a size-exclusion chromatography step on a Superdex 200 increase 10/300 GL column (GE Healthcare) using a 25 mM Na-HEPES, 150 mM NaCl, 0.5 mM EDTA, pH 7.5 buffer as the eluent. GTP turnover was assessed as described previously. All experiments were carried out at 15 °C. The receptor was first incubated with the isolated G protein and, when applicable, the ligand (10 µM) for 30 min in a 25 mM HEPES, 100 mM NaCl, 5 mM MgCl2, pH 7.5 buffer. GTP turnover was then started by adding GTP (5 µM) and GDP (10 µM), and the amount of remaining GTP was assessed after 10 min incubation at 15 °C using the GTPase-Glo assay (Promega). The signal was normalized in each case to that in the absence of receptor (100%).
Supplementary Figure 2. Potential cholesterol binding sites and effects of cholesterol in GHSR signaling. (a) Cryo-EM density maps of two cholesterol molecules modeled in the structure of ghrelin-GHSR-Gi.GHSR is colored in slate. Cholesterol molecules are shown as grey sticks. (b) GTP turnover for Gi catalyzed by wild type GHSR in nanodiscs containing 10% […]
normalized to that obtained for the G protein in the absence of receptor (Gi panels), and data is mean ± SD of five experiments. Statistical values were obtained by means of two-sided […]
loaded receptor, respectively). […]
the absence or presence of 10% cholesterol (molar ratio) into the lipid discs. Each data point represents mean ± SD of three experiments.
(1 picture or pasted object on this page, not shown here)

wild type GHSR [2] = experiment: HTRF competition between dy647-JMV2959 and ghrelin in lipid discs; format: binding, human
From the text: as §1
(§2) Competition ligand-binding assays were performed using the HTRF signal between GHSR labeled with Lumi-4 Tb and the JMV2959 antagonist labeled with dy647. Increasing concentrations in the competing compound were added to a receptor: antagonist mixture (100 nM concentration range). In all cases, the ligand: receptor mixtures were incubated for 30 min at 15 °C and the HTRF signal recorded using a Cary Eclipse spectrofluorimeter (Varian) with an excitation wavelength set at 337 nm and an emission wavelength at 665 and 620 nm. All binding data were analyzed using Prism 8.0.
Supplementary Figure 2. Potential cholesterol binding sites and effects of cholesterol in GHSR signaling. (a) Cryo-EM density maps of two cholesterol molecules modeled in the structure of ghrelin-GHSR-Gi.GHSR is colored in slate. Cholesterol molecules are shown as grey sticks. […]

GHSR mutants [3] = experiment: Calcium mobilization assay, GHSR mutants (results in words); format: cell-based, human
Protocol: (§3) Calcium mobilization assay to measure GHSR signaling was carried out in HEK-293T cells cultured in DMEM supplemented with 10% (vol/vol) FBS (Fisher Scientific). The cDNAs encoding human GHSR was cloned into the pcDNA3.1(+) vector (Invitrogen) with a FLAG peptide fused to the N terminus. Mutant variants were then generated by site-directed mutagenesis and all mutants were fully sequenced. Various GHSR constructs were transfected to HEK-293T cells using FuGENE Transfection Reagent (Promega). The surface expression of wtGHSR and various mutants in HEK-293T cells was determined and confirmed using FACS with a fluorescent FLAG M1 antibody (homemade).
(§4) To measure the agonist-induced calcium release, 50 μL dye loading buffer made of Hank’s Balanced Salt Solution (HBSS) with 5 μM Fluo-4 (Sigma), 0.2% pluronicacid, and 1% FBS was added to the GHSR-expressing cells and incubated for 1 h at 37 °C. Cells were then washed twice with HBSS buffer and left at room temperature in 50 μL HBBS. Fluo-4 fluorescence intensity (excitation 480 nm, emission 520 nm) was measured as an indicator of calcium release in a multimode reader (Spark 20 M, TECAN). […] The data were analyzed in GraphPad Prism 8 using the one site dose-response stimulation method. Results were presented as mean ± S.D. from three independent experiments.

GHSR mutants [4] = experiment: HTRF-monitored binding of labeled ghrelin, GHSR mutants (results in words); design: species or system human; settings: Supplementary Fig. 3b
Protocol: as §2
GHSR mutants. (a) Surface expression levels of GHSR mutants tested in Figure 2. For each GHSR mutant, the expression level was determined by measuring the fluorescence intensity of transfected HEK-293 cells stained with a fluorescent anti-FLAG antibody that could bind to the N-terminal FLAG peptide of each GHSR construct. BG means background, representing results from non-transfected HEK-293 cells. Each column represents results shown as mean ± s.d. from 3 wells of cells transiently transfected with each GHSR mutant. (b) HTRF-monitored binding of […]
POPC:POPG lipid discs. The binding data are presented as variations in the HTRF ratio as a […]
Each data point represents mean ± SD of three […]
ibutamoren (yellow). The receptors are colored in slate and green, respectively. ECL2 and ECL3 show notable conformational differences. […]

GHSR mutants [5] = settings: cited from earlier work
GHSR [6] = settings: signaling through GHSR, under nutritional or physiological challenges; cited from earlier work
From the text: It mainly signals through the growth hormone secretagogue receptor (GHSR, or ghrelin receptor), a class A G protein-coupled receptor (GPCR). […] In addition, GHSR plays critical role in the mod ...

[7] = test system: GHSR and Gi signaling pathway; settings: cited from earlier work
From the text: The GHSR and Gi signaling ...

GHSR [8] = settings: cited from earlier work
From the text: It mainly signals through the growth hormone secretagogue receptor (GHSR, or ghrelin receptor), a class A G protein-coupled receptor (GPCR). […] The GHSR and Gi signaling ...

GHSR mutant R102A = experiment: Calcium mobilization assay, R102A; format: cell-based, human; settings: Fig. 2f
Protocol: Ghrelin residues are labeled in orange. […] GHSR bound to ibutamoren is colored green. Ibutamoren is shown as yellow sticks. e Ibutamoren binding pocket. f Dose-dependent action of ibutamoren on wtGHSR and mutants. In c and f, agonist-induced GHSR signaling was measured by Ca^2+ mobilization assay. Each data point represents mean ± S.D. from three independent assays. Polar interactions are shown as dashed lines in (a, b, and e).
as §3, with “Mutant variants were then generated by site-directed mutagenesis and all mutants were fully sequenced. Various GHSR constructs were transfected to HEK-293T cells using FuGENE Transfection Reagent (Promega).” left out
as §4, with “Cells were then washed twice with HBSS buffer and left at room temperature in 50 μL HBBS.” left out, “Results were presented as mean ± S.D. from three independent experiments.” left out

[9] = reconstituted lipid nanodiscs, 10% cholesterol

## CC(C)CCC[C@@H](C)[C@H]1CC[C@H]2[C@@H]3CC=C4C[C@@H](O)CC[C@]4(C)[C@H]3CC[C@]12C [cholesterol]
Wild type GHSR [1]; 10% cholesterol (molar ratio), with and without 10 µM ghrelin, five experiments
  effect of cholesterol on GHSR-induced Gi activation: subtle but significant positive effects
Wild type GHSR [1]; no ligand, lower amplitude than in the presence of ghrelin
  effect of cholesterol on basal activity (GTP turnover): statistically significant effect
Wild type GHSR [1]; [9]
  effect of cholesterol on activity of GHSR: positively regulate
Wild type GHSR [2]; 10% cholesterol, lipid discs (peer review file)
  effect of cholesterol on affinity of GHSR for ghrelin: slightly increase the affinity of GHSR for ghrelin
Wild type GHSR [2]; [9]
  effect of cholesterol on binding of ghrelin to GHSR: positively regulate the binding of ghrelin to GHSR

## ghrelin: 28-amino acid orexigenic peptide hormone; octanoylation at position-3 serine; endogenous GHSR agonist (Tocris) (GSS(Octanoyl)FLSPEHQRVQQRKESKKPPAKLQPR; UniProt Q9UBU3 24-51, looked up)
Wild type GHSR [2]; 10% cholesterol vs none, lipid discs
  decrease of Kd value for ghrelin in the presence of cholesterol: about 2 fold
GHSR mutants [3]; I297P, A298P, Q299P, I300P vs wtGHSR, 3 independent assays
  EC50 of ghrelin in inducing GHSR signaling, effect of the four TM7 proline mutations: didn't significantly affect the EC50s of ghrelin
GHSR mutants [3]; individual residues E297 to I300 to proline, Supplementary Fig. 4b
  agonistic action of ghrelin, effect of proline mutations at the extracellular end of TM7: didn't significantly affect the agonistic action of ghrelin; also recorded: not critical for the agonistic action of ghrelin
GHSR mutants [3]; mutations to larger or polar residues, Fig. 2c
  GHSR signaling induced by ghrelin, effect of mutations of hydrophobic residues in cavity II: compromised GHSR signaling induced by ghrelin
GHSR mutants [4]; E124 and R283 to alanine or glutamine
  ghrelin binding, effect of salt bridge mutations: could almost abolish ghrelin binding
GHSR mutants [4]; individual mutations I178, L181, F286 to alanine
  affinity of GHSR for ghrelin, effect of alanine mutations: decreased affinity of GHSR for ghrelin
GHSR mutants [5]; individual mutations in the aromatic cluster
  potency of ghrelin in activating GHSR, effect of mutations F279, F312, W276: significantly lowered the potency of ghrelin
GHSR mutants [5]; individual mutations to non-polar residues
  potency of ghrelin, effect of mutations E124, R283, Q120: decreased potency of ghrelin
GHSR [6]
  growth hormone secretion and food intake: stimulates growth hormone secretion and food intake
[7]
  glucose-induced insulin release: attenuated glucose-induced insulin release

## Liver expressed antimicrobial peptide 2 (LEAP2): Liver expressed antimicrobial peptide 2, GHSR inverse agonist or antagonist (MTPFWRGVSLRPIGASCRDDSECITRLCRKRRCSLSVAQE; UniProt Q969E1 38-77, looked up)
GHSR [8]
  pharmacological character at GHSR: GHSR inverse agonist or antagonist

## Cc1cc(-c2ccc3c(c2)CC[C@H]3N2CC3(CCN(C(=O)Cc4cn5cc(C)sc5n4)CC3)C2)ncn1 [PF-5190457]
GHSR [8]
  pharmacological character at GHSR: GHSR inverse agonist

## CC(C)(N)C(=O)N[C@H](COCc1ccccc1)C(=O)N1CCC2(CC1)CN(S(C)(=O)=O)c1ccccc12 [ibutamoren]
GHSR mutant R102A
  action of ibutamoren, effect of mutation of R102: compromised action of ibutamoren
